Experimental data reported in publication PMC9321718 (Pharmaceuticals, 2022).

Assays:
[1] = Formation of inclusion complexes with HPCD (UV spectroscopy, Hill linearization); format: physicochemical; conditions: pH 6.2, 22 °C; for EE, % / LC, %: 0.01 M
Protocol: To optimize the system composition, similar experiments were carried out on the formation of EG and apiol inclusion complexes with HPCD (Figure S1). […] According to these changes, the dissociation constants of the EG–HPCD and apiol–HPCD complexes (Figure S2) were calculated by Hill’s equation (Table 1). […] The physicochemical parameters of the interaction of APAB and terpenoids (X) with CD were studied by determining the concentration of substances in the aqueous fraction ([APAB] + [APAB-MCD]) according to the calibration dependence (Figure 1C) for systems with a constant amount of the essential oil component X and the concentration gradient MCD (Table 1). Theta (θ) is a fraction of the bound substance X:θ = [X-MCD]/([X-MCD] + [X]) and was calculated based on the dependence of the absorption intensity X on the MCD concentration in the system in the form of a sigmoidal Hill curve with subsequent linearization (Section 3, Section 3.3 and Section 3.4).
The molar excess of CD varied from 0.04 to 10). Further, the complexes were incubated for 1 h at 37 °C and then centrifuged ([…], 15 min, Eppendorf tubes) to separate the insoluble fractions. Complexes were studied by UV and FTIR spectroscopy.
UV spectra of solutions (point 3.3.1) were recorded on the AmerSham Biosciences UltraSpec 2100 pro device (USA) three times in the range of 200–400 nm in a quartz cell Hellma 100–QS with an optical path of 1 cm. Background spectrum (5 mM sodium phosphate buffer (pH 6.2) with 50% EtOH) was subtracted as a blank.
(1) Calculation of the dissociation constants X–MCD and X–HPCD, where X is a “guest” compound, considering the equilibrium: Xaq + n MCDaq ↔ X·nMCDaq, where Kd = [MCDaq]^n · [Xaq]/[X·nMCDaq].
First, fitting of the curves of change of the analytical signal ξ (peak intensity or peak position) versus concentration of the MCD or HPCD or was carried out using the Hill equations: (1) ξ = ξ∞ · [MCD]^n/([MCD]^n + K^n), where ξ∞—horizontal asymptote; (2) ξ = ξ0 + (ξ∞–ξ0) · [MCD]^n/([MCD]^n + K^n). Second, calculation n and Kd values by Hill’s linearization in n-binding site model: lg (θ/(1 – θ)) = n · lg [L] – lg Kd, where θ = |(ξ – ξ0)/(ξ∞ − ξ0)|is a fraction of the bound substance. N in Hill equation—number of drug molecules per CD torus.

[2] = Dissociation constant of complexes with HPCD by FTIR spectroscopy; format: physicochemical; conditions: complex with HPCD, aqueous solutions, 22 °C
Excerpt: Changes in the microenvironment of chemical bonds, functional groups, protonation/deprotonation, or the formation of non-valent interactions between the receptor and the ligand (in this case, the formation of guest–host inclusion complexes of CD with EG and apiol molecules) leads to a change in the intensity or position of characteristic peaks in the IR spectra. […] The above-indicated peaks in the IR spectra are composite which was visually confirmed by the changes in the shape of peaks and even the appearance of shoulders when the APAB was turned on in the CD cavity. To separate the complex peaks into components, increase sensitivity and obtain more detailed information, the differentiation method was used. The shifts of minima/maxima of the second derivative of spectra (Figure 2B) in allyl ν(C=C) and aromatic ν(C–C) regions were the most prominent. […]
ATR-FTIR spectra of samples’ solutions (point 3.3.1) were recorded using a Bruker Tensor 27 spectrometer equipped with a liquid nitrogen cooled MCT (mercury cadmium telluride) detector. […] ATR-FTIR spectra of solid samples placed on KBr glass were recorded using a Bruker Lumos II IR microscope in the region from 700 to 4000 cm^−1 with 1 cm^−1 spectral resolution with scanning in the area on average 1 × 1 microns. […]

[3] = Dissolution of APAB on inclusion into CD, observed in a light microscope; format: physicochemical; conditions: MCD and HPCD
Protocol: The dependence of the dissolution degree on the content of CD in the system was determined. […] Since soluble complex forms of EG, apiol and other individual components of essential oils have been obtained, a quantitative study of the adjuvant and synergistic activities of APAB is relevant but previously impossible because of the stratification of substances and the formation of oil fractions. The following are the results of experiments to determine the antibacterial and synergistic effects of adjuvant–CD complexes.

[4] = Solid-phase FTIR microscopy of the EG–HPCD complex (distribution of EE); format: physicochemical; conditions: EG–HPCD complex in solid form
Excerpt: To level the overlap of bond fluctuations in water molecules and the effect of hydration, the spectra of the EG–HPCD complex in solid form were registered as complementary materials (Figure S6). There are characteristic peaks of EG, which were quenched in the aqueous phase, C–Carom and C=C of the ethylene group. In the solid phase, we observed peaks corresponding to the stretching oscillations of CH2, CH3 groups (2900–3000 cm^−^1) and O-H (3200–3500 cm^−^1) without solvent contribution. […] EG was effectively (EE > 70%) included in two-thirds of the sample by quantity, in the remaining part EE exceeded 25–35%.
ATR-FTIR spectra of samples’ solutions (point 3.3.1) were recorded using a Bruker Tensor 27 spectrometer equipped with a liquid nitrogen cooled MCT (mercury cadmium telluride) detector. Samples were placed in a thermostatic cell BioATR-II with ZnSe ATR element (Bruker, Ettlingen, Germany). The IR spectrometer was merged with a constant flow of N2 (NiGen HF-1, Clint, Italy). FTIR spectra were acquired from 900 to 3000 cm^−1 with 1 cm^−1 spectral resolution. For each spectrum, 50–70 scans were accumulated at 20 kHz scanning speed and averaged. ATR-FTIR spectra of solid samples placed on KBr glass were recorded using a Bruker Lumos II IR microscope in the region from 700 to 4000 cm^−1 with 1 cm^−1 spectral resolution with scanning in the area on average 1 × 1 microns. […]

[5] = pH 6.2
Protocol: (3) Solubility of X in water C0 = [Xaq] = A/(ε · l) was determined by UV absorbance after centrifugation of samples (10 min, 10,000× g). l = 1 cm. ε—molar absorbance coefficient (Figure 1C).

Gram-negative bacteria = tested on: Gram-negative bacteria; set-up: method as in PMID 19540744; conditions: cited from earlier work
[6] = set-up: method as in doi:10.1016/j.foodres.2009.06.006; conditions: complex with β-form of CD; cited from earlier work
E. coli = tested on: E. coli; set-up: method as in PMID 20214546; conditions: EG in the form of a complex with CD; cited from earlier work
[7] = set-up: method as in PMID 20214546; conditions: host:guest molar ratio of 1:1; cited from earlier work

SMILES | EE, % [1] [%] | LC, % [1] [%] | n [1] | Kd [2] [mM] | amount of CD required for a noticeable conversion to the complex/soluble form [3] | molar excess of CD for almost complete dissolution [3] | EE in the remaining part of the sample ([4]; remaining part) | EE in two-thirds of the sample ([4]; two-thirds of the sample by quantity) [%] | Cmax in the Presence of 2 mM HPCD [5] | Cmax in the Presence of 2 mM MCD [5] | Cmax in the Presence of 10 mM HPCD [5] | Cmax in the Presence of 10 mM MCD [5] | reduction of the MIC of antibiotics by EG as an adjuvant (Gram-negative bacteria; Gram-negative bacteria, highest values for tetracycline and vancomycin) | concentration at which EG forms defects in the membranes of bacteria (Gram-negative bacteria; suggested) [mM] | half-dissociation period [6] [h] | concentration already active in growth inhibition (E. coli) [mg/mL] | initial amount of EG included in CD [7] [%] | mass fraction of EG in the sample [7]
C=CCc1cc(OC)c2c(c1OC)OCO2 [Apiol] | 7 ± 1 | 9 ± 1 | 1.56 ± 0.25 | 4 ± 0.3 | 2 fold molar excess | 10–15 fold molar excess | – | – | – | – | – | – | – | – | – | – | – | –
C=CCc1ccc(O)c(OC)c1 [Eugenol, 4-allyl-2-methoxyphenol] | 56 ± 7 | 9 ± 1 | 1.2 ± 0.1 | 4.1 ± 0.3 | equimolar | 5 fold molar excess | 25–35% | > 70 | 8.3 ± 0.2 (MCD), 8.5 ± 0.1 (HPCD) mM | 8.3 ± 0.2 (MCD), 8.5 ± 0.1 (HPCD) mM | 11 ± 1 (MCD), 13 ± 1 (HPCD) mM | 11 ± 1 (MCD), 13 ± 1 (HPCD) mM | 5–1000 times | 1 | 3 | 0.5 | ~92 | about 58%
CC1CCC(C(C)C)C(O)C1 (centres unmarked) [Menthol] | – | – | – | – | – | – | – | – | – | 1.4 ± 0.2 mM | – | 8.5 ± 0.8 mM | – | – | – | – | – | –
